From publication PMC7509555, “An In Vitro Study for Evaluating Permeability and Metabolism of Kurarinone” (Evidence-based Complementary and Alternative Medicine : eCAM, 2020)

Key:
CYP2C9 = assay: Inhibition of CYP2C9 activity (diclofenac probe) in RLMs; type: in vitro ADME; conditions: rat, rat liver microsomes, probe diclofenac 10 μM, 100 μM kurarinone, 10 μM diclofenac
Procedure: (§1) Samples were prepared in a total volume of 200 μL, containing 0.3 mg/mL protein in human liver microsomes or 15 nM protein in recombinant human supersomes, probe substrates or 50 μM kurarinone, 10 mM MgCl2, 10 mM glucose-6-phosphate, and 1 unit/mL of glucose-6-phosphate dehydrogenase. The reactions were activated by adding NADPH following preincubation at 37°C for 5 min. The reactions were maintained at 37°C for 1 h and terminated by adding 200 μL ice-cold acetonitrile. The supernatant (10 μL) collected from the samples that were centrifuged (20,000 g, 20 min, 4°C) was injected into the HPLC system for analysis. Control incubations devoid of NADPH or kurarinone were performed parallelly to ensure that the produced metabolites were NADPH- or kurarinone-dependent.
RLMs were used to assess the inhibitory effects of kurarinone (100 μM) on six different human isoforms (CYP1A2, CYP2C9, CYP2D6, CYP2E1, CYP3A4, and CYP2C19). The probe substrates used in this experiment were 40 μM phenacetin for CYP1A2, 10 μM diclofenac for CYP2C9, 25 μM dextromethorphan for CYP2D6, 120 μM chlorzoxazone for CYP2E1, 35 μM testosterone for CYP3A4, and 20 μM (S)-mephenytoin for […] as described earlier. The reaction system has been described in Section 2.3. […]

[1] = tested on: minipig liver microsomes (PLMs); assay: Enzyme kinetics of P1 formation from kurarinone in PLMs; type: in vitro ADME
Procedure: as §1
Various concentrations of kurarinone (1–200 μM) were incubated with RLMs, MLMs, PLMs, RAMs, CYP1A2, and CYP2D6 to estimate kinetic parameters. The rest of the other conditions remained the same as described in Section 2.3. […] The apparent Km and Vmax values were calculated from nonlinear regression analysis of experimental data according to the Michaelis–Menten equation, and the results were represented graphically by Eadie–Hofstee plots. All incubations were carried out as triplicate independent experiments, and kinetic constants were recorded as mean ± SD.

UGT1A6 = target: T1, UGT1A6 (Homo sapiens, UniProt P19224); assay: Inhibition of recombinant UGT1A6-catalyzed 4-MU glucuronidation; type: in vitro ADME; conditions: recombinant UGT1A6, pH 7.4, probe 4-MU (110 μM), 100 μM kurarinone, recombinant UGT
T1 construct: purchased BD Gentest Corp. (Woburn, MA, USA)
T1 sequence (P19224 27-532): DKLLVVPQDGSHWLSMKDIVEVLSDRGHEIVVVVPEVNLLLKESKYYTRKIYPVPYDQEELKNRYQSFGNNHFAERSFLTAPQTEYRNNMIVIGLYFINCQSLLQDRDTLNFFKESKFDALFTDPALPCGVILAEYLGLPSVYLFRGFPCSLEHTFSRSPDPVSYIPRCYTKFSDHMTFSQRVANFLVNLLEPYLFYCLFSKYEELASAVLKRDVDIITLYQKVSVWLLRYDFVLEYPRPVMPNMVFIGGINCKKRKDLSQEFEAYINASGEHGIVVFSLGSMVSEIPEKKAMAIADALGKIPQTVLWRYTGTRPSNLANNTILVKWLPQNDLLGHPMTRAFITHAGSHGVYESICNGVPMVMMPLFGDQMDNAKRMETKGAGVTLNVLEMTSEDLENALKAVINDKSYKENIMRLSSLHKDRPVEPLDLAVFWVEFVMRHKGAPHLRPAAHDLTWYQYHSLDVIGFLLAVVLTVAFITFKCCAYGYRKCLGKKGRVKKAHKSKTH
Procedure: 4-MU, a nonspecific probe substrate for UGT isoforms, was used to explore the inhibition of UGT isoforms by kurarinone. The mixture (200 μL total volume) contained recombinant UGTs (final concentrations: 0.125, 0.05, 0.025, 0.05, 0.025, 0.05, 0.05, 0.25, 0.05, and 0.2 mg/mL for UGT1A1, UGT1A3, UGT1A6, UGT1A7, UGT1A8, UGT1A9, UGT1A10, UGT2B4, UGT2B7, and UGT2B15, respectively), 5 mM UDPGA, 5 mM MgCl2, 50 mM Tris-HCl buffer (pH 7.4), and 4-MU in the absence or presence of various concentrations of kurarinone. The concentrations of 4-MU were as follows: 110 μM for UGT1A1 and UGT1A6, 1200 μM for UGT1A3 and UGT2B4, 15 μM for UGT1A7, 750 μM for UGT1A8, 30 μM for UGT1A9, 80 μM for UGT1A10, 350 μM for UGT2B7, 250 μM for UGT2B15, and 2000 μM for UGT2B17. Kurarinone was dissolved in methanol, and the final concentration of methanol was 0.5% (v/v). Reactions were initiated by adding UDPGA, and incubations were carried out at 37°C in a shaking waterbath for 60 min. The reactions were terminated by addition of 200 μL of ice-cold acetonitrile containing 7-hydroxycoumarin (100 μM) as the internal standard. The incubation mixture was then centrifuged at 20,000 ×g for 20 min to obtain the supernatant, and an aliquot of supernatant (20 μL) was transferred to an autoinjector vial for HPLC analysis.

HL-7702 cells = conditions: cited from earlier work
CYP1A2 = target: T2, CYP1A2 (Rattus norvegicus, UniProt P04799); assay: Inhibition of CYP1A2 activity (phenacetin O-deethylation) in RLMs; type: in vitro ADME
T2 construct: tissue Research Institute for Liver Disease Co., Ltd. (Shanghai, China); host or cells: pooled rat liver microsomes
T2 sequence (P04799 2-513): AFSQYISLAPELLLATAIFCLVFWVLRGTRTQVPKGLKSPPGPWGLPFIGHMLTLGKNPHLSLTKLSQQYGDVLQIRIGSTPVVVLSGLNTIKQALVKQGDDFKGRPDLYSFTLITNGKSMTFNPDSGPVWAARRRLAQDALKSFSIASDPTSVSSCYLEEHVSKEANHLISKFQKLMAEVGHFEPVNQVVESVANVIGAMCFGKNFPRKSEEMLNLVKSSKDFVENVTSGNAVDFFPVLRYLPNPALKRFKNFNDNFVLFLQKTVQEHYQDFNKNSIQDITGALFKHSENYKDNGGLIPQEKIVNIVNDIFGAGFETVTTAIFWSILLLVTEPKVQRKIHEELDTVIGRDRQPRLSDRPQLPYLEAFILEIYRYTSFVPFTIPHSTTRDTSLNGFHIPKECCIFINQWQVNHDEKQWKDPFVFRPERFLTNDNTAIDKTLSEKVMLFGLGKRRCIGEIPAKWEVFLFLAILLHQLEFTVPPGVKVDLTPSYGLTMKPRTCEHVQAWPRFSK
Procedure: as §1
RLMs were used to assess the inhibitory effects of kurarinone (100 μM) on six different human isoforms (CYP1A2, CYP2C9, CYP2D6, CYP2E1, CYP3A4, and CYP2C19). The probe substrates used in this experiment were 40 μM phenacetin for CYP1A2, 10 μM diclofenac for CYP2C9, 25 μM dextromethorphan for CYP2D6, 120 μM chlorzoxazone for CYP2E1, 35 μM testosterone for CYP3A4, and 20 μM (S)-mephenytoin for […] as described earlier. The reaction system has been described in Section 2.3. […] Dixon and Lineweaver–Burk plots were formed to confirm the reversible inhibition type, and a second plot of slopes from the Lineweaver–Burk plot over the concentrations of kurarinone was used to estimate the Ki value. All incubations were performed in triplicates, and mean values were used for analysis.

With `C=C(C)[C@H](CC=C(C)C)Cc1c(O)cc(OC)c2c1O[C@H](c1ccc(O)cc1O)CC2=O` [Kurarinone] the inhibition at 1 h, 100 μM (CYP2C9) was greater than 90%, the “Vmax of P1 formation” value [1] was 8.46 ± 0.74 nmol·min^−1·mg^−1 protein and the Km ([1]; kurarinone 1–200 μM) was 49.9 ± 7.91 µM. For the same compound, the inhibition at 60 min, 100 μM (UGT1A6) was greater than 90%, the cytotoxicity (HL-7702 cells) was “remarkable cytotoxicity” and the “inhibition type against CYP1A2” value (CYP1A2; Dixon and Lineweaver–Burk plots) was “competitive”. The IC50 (CYP1A2; phenacetin O-deethylation, RLMs, read-out: IC50 against CYP1A2) was 10 µM, the inhibition at 1 h, 100 μM (CYP1A2; rat, rat liver microsomes, probe phenacetin 40 μM (O-deethylation), 100 μM kurarinone, 40 μM phenacetin, RLMs) was greater than 90% and the Ki (CYP1A2; second plot of slopes from Lineweaver–Burk plots, RLMs) was 8.13 µM.
